Legend:
RPE65 = biological target: T1, RPE65 (Gallus gallus, UniProt Q9YGX2); experiment: Liposome-based isomerase assay with purified RPE65; type: biochemical, chicken
T1 sequence (Q9YGX2 1-533): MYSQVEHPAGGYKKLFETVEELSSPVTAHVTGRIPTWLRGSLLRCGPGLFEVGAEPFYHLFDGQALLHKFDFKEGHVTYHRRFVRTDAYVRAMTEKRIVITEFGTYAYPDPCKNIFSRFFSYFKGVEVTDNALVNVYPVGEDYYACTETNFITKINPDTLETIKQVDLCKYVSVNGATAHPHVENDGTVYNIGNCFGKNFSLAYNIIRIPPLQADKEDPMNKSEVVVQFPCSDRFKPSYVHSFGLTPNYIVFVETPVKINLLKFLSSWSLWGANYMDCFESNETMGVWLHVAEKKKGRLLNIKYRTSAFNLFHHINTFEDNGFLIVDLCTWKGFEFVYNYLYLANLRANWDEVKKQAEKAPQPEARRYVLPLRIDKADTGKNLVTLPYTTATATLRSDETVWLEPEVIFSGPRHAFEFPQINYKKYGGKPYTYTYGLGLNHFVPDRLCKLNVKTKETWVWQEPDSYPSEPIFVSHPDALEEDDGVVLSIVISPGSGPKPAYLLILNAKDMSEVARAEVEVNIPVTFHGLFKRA
Procedure: FIG. 3. Uncompetitive inhibition of RPE65 isomerase by RPE65-61. All-trans-retinyl ester incorporated in liposomes was used as a substrate for purified RPE65 in the isomerase assay. (FIG. 3A) HPLC elution profile of the reaction products without inhibitor; (FIG. 3B) with 180 nM of RPE65-61; Peak 1, retinyl esters; Peak 2, 11-cis-retinol; Peak 3, all-trans-retinol. (FIG. 3C) Lineweaver-Burk plot of 11-cis-retinol generated by RPE65. Liposomes with increasing concentrations (S) of all-trans-retinyl palmitate were incubated with 25 μg of purified chicken RPE65 in the absence (♦) or in the presence of RPE65-61 (180 nM) (▪).
All-trans [11,12-^3H]-retinol (1 mCi/ml, 45.5 Ci/mmol, Perkin Elmer, Boston, MA) in N,N-dimethyl formamide (DMF) was used as the substrate for the isomerohydrolase assay. Bovine RPE microsomes were prepared as described previously. […] The upper layer was collected and the generated retinoids were analyzed by normal phase HPLC as described (Moiseyev, G. et al. 2003). […] The isomerohydrolase activity was calculated from the area of the 11-cis retinol peak using Radiomatic 610TR software (Perkin Elmer, Boston, MA) with synthetic 11-cis [^3H]-retinol as a standard. […] The retinoid profile after completion of the reaction was analyzed by HPLC where the peaks were identified by co-elution with retinoid standards. […]

VAP-1 = biological target: T2, VAP-1 (Homo sapiens, UniProt Q16853); experiment: in vitro; conditions: both, plasma, pH 7.4
T2 sequence (Q16853 29-763 limits assumed): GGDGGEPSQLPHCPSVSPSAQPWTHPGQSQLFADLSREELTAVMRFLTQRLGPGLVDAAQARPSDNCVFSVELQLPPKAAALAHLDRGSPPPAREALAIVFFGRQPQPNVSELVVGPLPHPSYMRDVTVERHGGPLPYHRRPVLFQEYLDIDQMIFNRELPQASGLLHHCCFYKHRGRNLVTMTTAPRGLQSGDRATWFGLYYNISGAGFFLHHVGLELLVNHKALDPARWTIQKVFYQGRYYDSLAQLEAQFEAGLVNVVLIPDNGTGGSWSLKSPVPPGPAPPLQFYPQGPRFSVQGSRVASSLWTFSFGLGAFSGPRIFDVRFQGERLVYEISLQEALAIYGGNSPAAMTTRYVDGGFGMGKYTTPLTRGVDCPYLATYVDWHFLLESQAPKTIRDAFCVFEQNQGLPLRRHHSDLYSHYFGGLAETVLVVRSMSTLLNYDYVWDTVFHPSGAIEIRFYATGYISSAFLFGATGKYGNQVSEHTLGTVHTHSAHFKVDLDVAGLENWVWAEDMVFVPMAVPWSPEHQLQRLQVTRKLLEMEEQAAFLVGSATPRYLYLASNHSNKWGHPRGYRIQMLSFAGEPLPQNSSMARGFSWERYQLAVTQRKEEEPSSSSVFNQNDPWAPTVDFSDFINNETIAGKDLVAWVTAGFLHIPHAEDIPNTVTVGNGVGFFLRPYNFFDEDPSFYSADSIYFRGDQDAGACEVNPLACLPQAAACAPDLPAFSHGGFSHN
Procedure: Studies were carried out in mixed-gender human plasma (Lot #HMN330460) and male Beagle dog plasma (Lot #BGL118112), obtained from BioIVT and collected on sodium heparin. Plasma was adjusted to pH 7.4 prior to initiating the experiments. DMSO stocks were first prepared for the test articles. Aliquots of the DMSO solutions were dosed into 1 mL of plasma, which had been pre-warmed to 37° C., at a final test article concentration of 1 μM. The vials were kept in a benchtop Thermomixer® for the duration of the experiment. Aliquots (100 μL) were taken at each time point (0, 15, 30, 60, and 120 minutes) and added to 96-well plates, which had been pre-filled with 300 μL of acetonitrile (ACN). Samples were stored at 4° C. until the end of the experiment. After the final time point was sampled, the plate was mixed and then centrifuged at 3,000 rpm for 10 minutes. Aliquots of the supernatant were removed, diluted 1:1 into distilled water, and analyzed by LC-MS/MS. The peak area response ratio to internal standard (PARR) was compared to the PARR at time 0 to determine the percent of test article remaining at each time point. Half-lives were calculated using GraphPad software, fitting to a single-phase exponential decay equation.

- mode of RPE65 inhibition (RPE65; liposome-based assay with recombinant RPE65): uncompetitive inhibitor
- Ki (RPE65; liposome-based assay, 180 nM inhibitor): 150 nM
- half-life at 1 μM (VAP-1): > 2 h
Compound: N=S(=O)(CCN)c1cccc(OCC2CCCCC2)c1 (racemic) [RPE65-61, (±)-(2-aminoethyl) (3-(cyclohexylmethoxy)phenyl) (imino)-λ^6-sulfanone]

— patent US20240245647A1, “ISOMEROHYDROLASE INHIBITOR FOR TREATMENT OF ATROPHIC FORM OF AGE-RELATED MACULAR DEGENERATION AND STARGARDT DISEASE” (The Trustees of Columbia University in the City of New York, priority 2021, published 2024)
